Experimental data: the NIST ThermoML archive (doi:10.1007/s10765-008-0410-4)

Settings: Liquid, Vibrating tube method

CCCCn1cc[n+](C)c1.F[B-](F)(F)F [1-butyl-3-methylimidazolium tetrafluoroborate]
Settings | mass density [kg/m3]
298.15 K, 280 kPa | 1211.19
298.15 K, 5640 kPa | 1213.63
298.15 K, 10620 kPa | 1215.85
298.15 K, 15340 kPa | 1217.77
298.15 K, 20640 kPa | 1220.29
298.15 K, 25270 kPa | 1222.18
298.15 K, 30050 kPa | 1223.93
298.15 K, 35410 kPa | 1226.07
298.15 K, 39610 kPa | 1227.81
323.15 K, 730 kPa | 1192.89
323.15 K, 5640 kPa | 1195.3
323.15 K, 10610 kPa | 1197.71
323.15 K, 15440 kPa | 1200.01
323.15 K, 20460 kPa | 1202.37
323.15 K, 25360 kPa | 1204.64
323.15 K, 30740 kPa | 1207.09
323.15 K, 35650 kPa | 1209.29
323.15 K, 39850 kPa | 1211.14
348.15 K, 210 kPa | 1174.44
348.15 K, 5960 kPa | 1177.75
348.15 K, 10480 kPa | 1180.3
348.15 K, 15430 kPa | 1182.72
348.15 K, 20870 kPa | 1185.63
348.15 K, 25850 kPa | 1188.16
348.15 K, 30110 kPa | 1190.19
348.15 K, 35110 kPa | 1192.88
348.15 K, 39610 kPa | 1194.77
373.15 K, 470 kPa | 1157.24
373.15 K, 5350 kPa | 1160.25
373.15 K, 10080 kPa | 1163.09
373.15 K, 15710 kPa | 1166.39
373.15 K, 20970 kPa | 1169.38
373.15 K, 25820 kPa | 1172.07
373.15 K, 30120 kPa | 1174.39
373.15 K, 35530 kPa | 1177.22
373.15 K, 39820 kPa | 1179.41
398.15 K, 870 kPa | 1141.05
398.15 K, 6670 kPa | 1144.53
398.15 K, 10490 kPa | 1147.07
398.15 K, 15730 kPa | 1150.32
398.15 K, 20980 kPa | 1153.78
398.15 K, 25140 kPa | 1156.3
398.15 K, 30890 kPa | 1159.52
398.15 K, 35810 kPa | 1162.4
398.15 K, 39560 kPa | 1164.38
